In one assay the test system is A549 NSCLC cells. The assay is described as follows: NSCLC cell proliferation in vitro (MTS assay). The assay is classed as cell-based, human. The note with it: 72 hours, MTS assay.
A further assay relates to H1975 NSCLC cells. The assay is described as follows: NSCLC cell proliferation in vitro (MTS assay). The assay is classed as cell-based, human. The note with it: 72 hours. The protocol:
(§1) Cell culture: Human breast and non-small cell lung cancer cells (MCF7, ZR75-1, MDAMB231, A549, H23, H1975, […]) were from ATCC. MCF7-HER2 were a kind gift of Dr. Dennis Slamon (23). Cell lines were routinely maintained in RPMI 1640 or DMEM medium with 10% fetal bovine serum (FBS) (Sigma-Aldrich) and 1% Antibiotic-Antimycotic solution 100× (Mediatech, Herndon, Va.). When indicated, for estrogen-free conditions, media was changed 48 h before experiments to phenol-red free RPMI 1640/DMEM with 1% dextran-coated, charcoal-treated (DCC)-FBS (24,25). Otherwise experiments were performed in phenol-red free RPMI 1640/DMEM medium with 5% DCC-FBS.
(§2) Cell proliferation assays: breast and lung tumor cells (between […]) were plated in 96 well plates using their respective medium with 10% FBS. For experiments using estradiol-17β, cells were rinsed with PBS and incubated with phenol redfree medium with 1% DCC-FBS for 48 hours as described before (24,25). Cells were then treated with different concentrations of SERDs ranging between 0.0001-100 μM. […] Cell counts and viability tests (Trypan blue) were done every 24 hr for 3 days. After 72 hr, proliferation was assessed with the MTS Assay CELLTITER 96® Aqueous Cell Proliferation Assay (Promega) or the Cell Proliferation ELISA, BrdU colorimetric assay (Roche). For the MTS, the absorbance of the formazan product was measured at 490 nanometer using the iMARK microplate reader from BIORAD. The BrdU ELISA assay is based on detection of BrdU incorporated into the genomic DNA of proliferating cells and an anti-BrdU antibody, the reaction product was quantified by measuring the absorbance at 370 nanometers using iMARK microplate reader from BIORAD. Cell numbers were also assessed initially by cell counts to confirm MTS/BrdU data. Experiments were done at least three times to confirm data.
Background: Tetrazolium assays rely on reduction of a dye to a coloured formazan, in cell work by metabolically active cells.

A further assay concerns H2122 NSCLC cells. Nature of the assay: NSCLC cell proliferation in vitro (MTS assay). The assay is classed as cell-based, human. The note with it: 72 hours. The procedure: as §1, §2
For assay [1], the system named is MCF-7 breast cancer cells. Nature of the assay: MCF-7 breast cancer cell proliferation (BrdU ELISA) in presence of estradiol-17β. The assay is classed as cell-based, human. The following applies: Homo sapiens, MCF7; 72 hrs in the presence of 1 nM estradiol-17β, BrdU ELISA; read-out: IC50 for inhibition of cell proliferation, MCF-7. The procedure:
In experiments to assess potential proliferative effects of novel estrogen receptor ligands, human breast cancer cells were grown in phenol red-free, estrogen-free media with 1% dextran-coated charcoal-treated (DCC)-fetal bovine serum (FBS) for 48 hrs (15,44), then treated with either 1 μM or 50 μM doses of estrogen receptor antagonists in the presence of 1 nM estradiol-17β. Cell counts and viability tests (Trypan blue) were done every 24 hr for 3 days. After 72 hr, proliferation was assessed using the BrdU Cell proliferation ELISA (Roche). Cell numbers were also assessed initially by cell counts to confirm ELISA data. Each antiestrogen was tested at least in three different experiments.
In order to assess the antitumor action of novel estrogen receptor antagonists, we cultured human MCF-7 breast cancer cells with known expression of ERα. Cells were grown in 1% DCC-FBS for 48 hr and then treated with vehicle control or either 1 μM or 50 μM concentrations of antiestrogens JD 101-160 or the pure antiestrogen fulvestrant (FAS), all in the presence of 1 nM estradiol-170. […] Shown in FIG. 2A are results from MCF-7 cells grown in 1% DCC-FBS for 48 hr and then treated with vehicle control, 1 nM estradiol-170 and either 1 μM or 50 μM concentrations of antiestrogens JD 101-160 or the known pure antiestrogen fulvestrant (FAS) in the presence of 1 nM estradiol-170. Cell proliferation is expressed as percentage of that determined in the 1 nM estradiol-170-treated control group.
as §2
For orientation: Incorporation of labelled thymidine or its analogues reports DNA synthesis.

The next assay relates to Rb serine-780. Nature of the assay: Rb serine-780 phosphorylation, Western blot in A549 cells. The assay is classed as cell-based, human. The note with it: 24 h, 1% DCC-FBS, 1 nM E2, 1 nM androstenedione, 10 nM testosterone, 10 μM letrozole, 100 nM palbociclib, FIG. 4C. The protocol: FIG. 4C. […] Cells were treated 24 h in phenol red-free RPMI with 1% DCC-FBS with vehicle control (CON), 1 nM estradiol-17β (E2), 1 nM androstenedione (And), 10 nM testosterone (Tes), 10 μM letrozole (AI), 100 nM palbociclib (Plbo) or both Plbo+AI. After 24 hr, cell lysates subjected to Western blot with antibody to phosphoserine-780 Rb or total Rb (Cell Signaling) (20). GAPDH is used as loading control.
To investigate the antitumor efficacy of CDK 4/6 inhibitor palbociclib in NSCLC cells, we assessed the effects of palbociclib alone and in combination with the hormonal therapeutic letrozole (see FIGS. 4B and 5B). The potential mechanism of action of palbociclib and letrozole in NSCLC cells was investigated by assay of the effects of these agents alone and combined on phosphorylation of Rb serine-780
(In general: Immunoblotting shows a protein as a band on a membrane.)

The subject of the next assay is MCF-7 parental cells. The following applies: MCF-7 parental xenografts in nude mice; cited from earlier work.
The test system of another assay is MCF-7/HER-2 cells. The following applies: MCF-7 cells with HER2-overexpression, xenografts in nude mice; cited from earlier work.
The test system of the next assay is ER+ early breast cancer. The note with it: cited from earlier work.
Setting [2] is: Homo sapiens, A549, CDK 4/6 inhibitor without SERD, 5% DCC-FBS, read-out: IC50 for inhibition of NSCLC cell proliferation, A549.
The mark [3] stands for this setting: Homo sapiens, NCI-H1975, CDK 4/6 inhibitor without SERD, 5% DCC-FBS, read-out: IC50 for inhibition of NSCLC cell proliferation, H1975.
[4] abbreviates: Homo sapiens, NCI-H2122, CDK 4/6 inhibitor without SERD, 5% DCC-FBS, read-out: IC50 for inhibition of NSCLC cell proliferation, H2122.
Where [5] appears, read: Homo sapiens, A549, SERD alone, estrogen-depleted phenol red-free medium with 5% DCC-FBS, read-out: IC50 for inhibition of NSCLC cell proliferation, A549.
Setting [6] is: Homo sapiens, NCI-H1975, SERD alone, estrogen-depleted phenol red-free medium with 5% DCC-FBS, read-out: IC50 for inhibition of NSCLC cell proliferation, H1975.
[7] abbreviates: Homo sapiens, NCI-H2122, SERD alone, estrogen-depleted phenol red-free medium with 5% DCC-FBS, read-out: IC50 for inhibition of NSCLC cell proliferation, H2122.

pIC50: −log10 of the molar value. Like-named read-outs stand apart in the source and are kept apart here.

Consider `CCN1CCN(Cc2ccc(Nc3ncc(F)c(-c4cc(F)c5nc(C)n(C(C)C)c5c4)n3)nc2)CC1` [Abemaciclib, abemaciclib, reference compound], for which the pIC50 in the assay on A549 NSCLC cells (setting [2]) was 6.00; in the assay with H1975 NSCLC cells (setting [3]) it was 6.08; in the assay on H2122 NSCLC cells (setting [4]), 6.48.
On to `C[C@]12C[C@H](Oc3ccc(NC(=O)CN4CCOCC4)cc3)[C@@H]3c4ccc(O)cc4CC[C@H]3[C@@H]1CC[C@@H]2O` [JD103, N-(4-(((8S,9S,11S,13S,14S,17S)-3,17-Dihydroxy-13-methyl-7,8,9,11,12,13,14,15,16,17-deca-hydro-6H-cyclopenta[a]phenanthren-11-yl)oxy)phenyl)-2-morpholinoacetamide], for which the pIC50 in the assay with A549 NSCLC cells (setting [5]) is 5.70; in the assay on A549 NSCLC cells (in the presence of 1 μM abemaciclib, 5% DCC-FBS, read-out: IC50 of SERD for inhibition of NSCLC cell proliferation, A549), 6.25; in the assay on A549 NSCLC cells (in the presence of 1 μM palbociclib, 5% DCC-FBS, read-out: IC50 of SERD for inhibition of NSCLC cell proliferation, A549) it was 5.91; with H1975 NSCLC cells (setting [6]), 5.68; in the assay on H1975 NSCLC cells (in the presence of 1 μM abemaciclib, 5% DCC-FBS, read-out: IC50 of SERD for inhibition of NSCLC cell proliferation, H1975) it was 5.57; in the assay on H1975 NSCLC cells (in the presence of 1 μM palbociclib, 5% DCC-FBS, read-out: IC50 of SERD for inhibition of NSCLC cell proliferation, H1975), 5.34. In addition, the pIC50 is 5.88 in the assay on H2122 NSCLC cells (setting [7]); 6.13 with H2122 NSCLC cells (in the presence of 1 μM abemaciclib, 5% DCC-FBS, read-out: IC50 of SERD for inhibition of NSCLC cell proliferation, H2122); 5.62 with H2122 NSCLC cells (in the presence of 1 μM palbociclib, 5% DCC-FBS, read-out: IC50 of SERD for inhibition of NSCLC cell proliferation, H2122); 6.13 in assay [1].
Take `C[C@]12C[C@H](Oc3ccc(NCCN4CCOCC4)cc3)[C@@H]3c4ccc(O)cc4CC[C@H]3[C@@H]1CC[C@@H]2O` [JD121]: the pIC50 in the assay with A549 NSCLC cells (setting [5]) is 5.90; in the assay with H1975 NSCLC cells (setting [6]), 5.58; in the assay with H2122 NSCLC cells (setting [7]) it was 4.84; in assay [1], 6.44.
Regarding `CN(C)CCCC(=O)Nc1ccc(O[C@H]2C[C@]3(C)[C@@H](O)CC[C@H]3[C@@H]3CCc4cc(O)ccc4[C@H]32)cc1C(F)(F)F` [JD155, N-(4-(((8S,9S,11S,13S,14S,17S)-3,17-Dihydroxy-13-methyl-7,8,9,11,12,13,14,15,16,17-deca-hydro-6H-cyclopenta[a]phenanthren-11-yl)oxy)-2-(trifluoromethyl)phenyl)-4-(dimethylamino)butanamide], the results for the pIC50 in the assay on A549 NSCLC cells (setting [5]), with H1975 NSCLC cells (setting [6]) and in the assay with H2122 NSCLC cells (setting [7]) were 5.69, 5.36 and 5.91, respectively.
Take `C[C@]12C[C@H](Oc3ccc(NC(=O)CCCCN4CCCCC4)c(C(F)(F)F)c3)[C@@H]3c4ccc(O)cc4CC[C@H]3[C@@H]1CC[C@@H]2O` [JD156, N-(4-(((8S,9S,11S,13S,14S,17S)-3,17-Dihydroxy-13-methyl-7,8,9,11,12,13,14,15,16,17-deca-hydro-6H-cyclopenta[a]phenanthren-11-yl)oxy)-2-(trifluoromethyl)phenyl)-5-(piperidin-1-yl)pentanamide]: the pIC50 is 5.80 in the assay on A549 NSCLC cells (setting [5]), 5.49 in the assay with H1975 NSCLC cells (setting [6]) and 5.77 in the assay with H2122 NSCLC cells (setting [7]).
The corresponding values for `C[C@]12C[C@H](Oc3ccc(NC(=O)CCCCN4CCOCC4)c(C(F)(F)F)c3)[C@@H]3c4ccc(O)cc4CC[C@H]3[C@@H]1CC[C@@H]2O` [JD157, N-(4-(((8S,9S,11S,13S,14S,17S)-3,17-Dihydroxy-13-methyl-7,8,9,11,12,13,14,15,16,17-deca-hydro-6H-cyclopenta[a]phenanthren-11-yl)oxy)-2-(trifluoromethyl)phenyl)-5-morpholino-pentanamide] are 5.40, 5.74 and 5.89.
In the case of `C[C@]12C[C@H](Oc3ccc(NC(=O)CCCN4CCCCC4)c(C(F)(F)F)c3)[C@@H]3c4ccc(O)cc4CC[C@H]3[C@@H]1CC[C@@H]2O` [JD160, N-(4-(((8S,9S,11S,13S,14S,17S)-3,17-Dihydroxy-13-methyl-7,8,9,11,12,13,14,15,16,17-deca-hydro-6H-cyclopenta[a]phenanthren-11-yl)oxy)-2-(trifluoromethyl)phenyl)-4-(piperidin-1-yl)butanamide], the pIC50 in the assay on A549 NSCLC cells (setting [5]) is 5.85; in the assay with H1975 NSCLC cells (setting [6]) it was 5.69; in the assay with H2122 NSCLC cells (setting [7]), 5.57; in assay [1], 6.49.
As to `CC(=O)c1c(C)c2cnc(Nc3ccc(N4CCNCC4)cn3)nc2n(C2CCCC2)c1=O` [Palbociclib, palbociclib, reference compound], the results for the pIC50 in the assay with A549 NSCLC cells (setting [2]), in the assay on H1975 NSCLC cells (setting [3]) and in the assay with H2122 NSCLC cells (setting [4]) were 5.52, 5.93 and 6.06, respectively.
For the compound `C[C@]12CCC(=O)C=C1CC[C@@H]1[C@@H]2CC[C@]2(C)C(=O)CC[C@@H]12` [androstenedione], the “phosphorylation of Rb serine-780” value with Rb serine-780 is given as “stimulate Rb phosphorylation”.
Consider `CC/C(=C(\c1ccccc1)c1ccc(OCCN(C)C)cc1)c1ccccc1` [tamoxifen], for which the “growth of parent tumors (xenografts)” value in the assay with MCF-7 parental cells was “suppressed”. Moreover, the “sensitivity of MCF-7/HER-2 xenografts” value in the assay with MCF-7/HER-2 cells is recorded as “insensitive”. Also, in the assay on ER+ early breast cancer, the “reduction in disease recurrence” value was 39% and the reduction in mortality is 31%.
Consider `C[C@]12CC[C@H]3[C@@H](CCC4=CC(=O)CC[C@@]43C)[C@@H]1CC[C@@H]2O` [testosterone], for which the “phosphorylation of Rb serine-780” value in the assay with Rb serine-780 is “stimulate Rb phosphorylation”.

Values taken from patent US10918648B2, “Estrogen receptor modulator combinations” (The Regents of the University of California, priority 2016, dated 2021).
